Assay [1] deals with T1, human RORγt (Ligand Binding Domain) (Homo sapiens, UniProt P51449).
T1 construct: purchased Crelux (Planegg, Germany) batch no PC5032-1
T1 sequence (P51449 269-508 limits assumed): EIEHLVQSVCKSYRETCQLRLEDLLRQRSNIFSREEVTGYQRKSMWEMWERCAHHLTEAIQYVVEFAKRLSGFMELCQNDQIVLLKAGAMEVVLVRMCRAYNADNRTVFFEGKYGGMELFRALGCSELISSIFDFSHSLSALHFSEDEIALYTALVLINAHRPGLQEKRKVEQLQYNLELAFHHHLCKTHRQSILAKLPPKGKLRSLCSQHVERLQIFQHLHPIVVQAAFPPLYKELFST
The assay can be described thus: Fluorescence Polarization (FP) Assay. The conditions noted are these: 100 nM human RORγt LBD, 25 nM TAMRA probe, values are activity range bounds. The procedure, abridged:
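Binding to the RORγt ligand-binding domain was followed by FP. Displacement of a TAMRA-tagged RORγt ligand tracer (910 g/mol) was measured, with DMSO-only wells as negative control.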

In assay [2] the target is T2, ligand binding domain of human RORγ (Homo sapiens, UniProt P51449).
T2 construct: host or cells: HEK293t
T2 sequence (P51449 269-508 limits assumed): T1 sequence (P51449 269-508 limits assumed)
In words: RORγ Reporter Assay (Gal4). The conditions noted are these: for inhibition at 1 µM: HEK-293T, read-out: Gal4 activity range @ 1 μM (% inhibition); for Gal4 activity range @ 0.1 μM (% inhibition): RORγ Reporter Assay (Gal4), HEK293t reporter cells, compound at 0.1 μM, values are activity range bounds. It counts as cell-based. The procedure, abridged: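 HEK293t cells expressing Gal4 DBD–human RORγ LBD hybrid with Gal4-UAS firefly luciferase reporter; compounds at final 1,000 nM and 100 nM (0.1% DMSO), triplicate, medium with 10% charcoal-stripped FBS, 24 h at 37 °C. Luminescence read; percent reduction of RORγ activity calculated versus vehicle-only wells.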

Setting [3] is: 1 μM test compound, HEK293t RORγ reporter cells, 24 hour.

Molecule `CS(=O)(=O)NCC1(CNc2ncnc(N(Cc3ccc(C(F)(F)F)cc3)C3CC3)c2F)CCOCC1` [Example A63, N-[[4-[[[6-[cyclopropyl-[[4-(trifluoromethyl)phenyl]methyl]amino]-5-fluoro-pyrimidin-4-yl]amino]methyl]tetrahydropyran-4-yl]methyl]methanesulfonamide] returned an IC50 in assay [1] of less than 500 nM. In assay [2] (setting [3]), the inhibition at 1 µM was more than 80%. The “Gal4 activity range @ 0.1 μM (% inhibition)” value in assay [2] is recorded as more than 80 % inhibition.
Molecule `CCCn1nc(C)cc1CN(C)c1ncnc(NCc2ccc(CC(=O)O)cc2)c1F` [Example A150, 2-[4-[[[5-fluoro-6-[methyl-[(5-methyl-2-propyl-pyrazol-3-yl)methyl]amino]pyrimidin-4-yl]amino]methyl]phenyl]acetic acid] showed a 50% inhibitory concentration (IC50) in assay [1] of less than 2000 nM. The inhibition at 1 µM in assay [2] (setting [3]) is more than 20%.
As to `NC(=O)Cc1ccc(CNc2ncnc(N(Cc3c(F)cccc3Cl)C3CC3)c2F)cc1` [Example A65, 2-[4-[[[6-[(2-chloro-6-fluoro-phenyl)methyl-cyclopropyl-amino]-5-fluoro-pyrimidin-4-yl]amino]methyl]phenyl]acetamide], the IC50 in assay [1] was less than 500 nM. Moreover, the inhibition at 1 µM in assay [2] (setting [3]) was more than 50%. In assay [2], the “Gal4 activity range @ 0.1 μM (% inhibition)” value is listed as more than 20 % inhibition.
In assay [1], `O=C(C1CC1)N1CCC(CNc2ncnc(N(Cc3ccc(C(F)(F)F)cc3)C3CC3)c2F)CC1` [Example A167, cyclopropyl-[4-[[[6-[cyclopropyl-[[4-(trifluoromethyl)phenyl]methyl]amino]-5-fluoro-pyrimidin-4-yl]amino]methyl]-1-piperidyl]methanone] registered an IC50 of less than 500 nM. Moreover, the inhibition at 1 µM in assay [2] (setting [3]) is more than 80%. In addition, the “Gal4 activity range @ 0.1 μM (% inhibition)” value in assay [2] is listed as more than 50 % inhibition.
On the same counts, the results for `CC(C)c1ccc(CN(c2ncnc(NCc3ccc(CC(N)=O)cc3)c2F)C2CC2)cn1` [Example A97, 2-[4-[[[6-[cyclopropyl-[(6-isopropyl-3-pyridyl)methyl]amino]-5-fluoro-pyrimidin-4-yl]amino]methyl]phenyl]acetamide] are less than 500 nM, more than 80% and more than 50 % inhibition.
On the same counts, the results for `Fc1c(NCC2CCOCC2)ncnc1N(Cc1ccc(C(F)(F)F)cc1)C1CC1` [Example A12, N4-cyclopropyl-5-fluoro-N6-(tetrahydropyran-4-ylmethyl)-N4-[[4-(trifluoromethyl)phenyl]methyl] pyrimidine-4,6-diamine] are less than 1000 nM, more than 80% and more than 20 % inhibition.
The like results for `CS(=O)(=O)Nc1ccc(CNc2ncnc(N(Cc3ccc(C(F)(F)F)cc3)C3CC3)c2F)cc1` [Example A59, N-[4-[[[6-[cyclopropyl-[[4-(trifluoromethyl)phenyl]methyl]amino]-5-fluoro-pyrimidin-4-yl]amino]methyl]phenyl]methane-sulfonamide] were, in that order, less than 500 nM, more than 80% and more than 80 % inhibition.
Take `CC1(c2ccc(CNc3ncnc(N(Cc4ccc(C(F)(F)F)cc4)C4CC4)c3F)cc2)NC(=O)NC1=O` (stereo not shown) [Example A82, 5-[4-[[[6-[cyclopropyl-[[4-(trifluoromethyl)phenyl]methyl]amino]-5-fluoro-pyrimidin-4-yl]amino]methyl]phenyl]-5-methyl-imidazolidine-2,4-dione]: the IC50 in assay [1] is less than 1000 nM. For the same molecule, the inhibition at 1 µM in assay [2] (setting [3]) is more than 80%. For the same molecule, the “Gal4 activity range @ 0.1 μM (% inhibition)” value in assay [2] is on record as more than 20 % inhibition.
In assay [1], `CCCn1nc(C)cc1CN(C)c1ncnc(NCc2ccc(CC(N)=O)cc2)c1F` [Example A124, 2-[4-[[[5-fluoro-6-[methyl-[(5-methyl-2-propyl-pyrazol-3-yl)methyl]amino]pyrimidin-4-yl]amino]methyl]phenyl]acetamide] yielded an IC50 of less than 500 nM. In assay [2] (1 μM test compound, HEK293t RORγ reporter cells, 24 hour, 1 µM), the “Gal4 activity range @ 1 μM (% inhibition)” value was more than 20%. In assay [2], the “Gal4 activity range @ 0.1 μM (% inhibition)” value is listed as more than 0 % inhibition.
Take `CCCn1nc(C)cc1CN(C)c1ncnc(NCC2CCN(S(C)(=O)=O)CC2)c1F` [Example A148, 5-fluoro-N4-methyl-N4-[(5-methyl-2-propyl-pyrazol-3-yl)methyl]-N6-[(1-methylsulfonyl-4-piperidyl)methyl]pyrimidine-4,6-diamine]: in assay [1], the IC50 is less than 500 nM. Besides, the inhibition at 1 µM in assay [2] (setting [3]) is more than 20%. Further, the “Gal4 activity range @ 0.1 μM (% inhibition)” value in assay [2] is given as more than 0 % inhibition.
Consider `N#CCc1ccc(CNc2ncnc(N(Cc3ccc(C(F)(F)F)cc3)C3CC3)c2F)cc1` [Example A14, 2-[4-[[[6-[cyclopropyl-[[4-(trifluoromethyl)phenyl]methyl]amino]-5-fluoro-pyrimidin-4-yl]amino]methyl]phenyl]acetonitrile], for which, in assay [1], the half-inhibitory concentration (IC50) is less than 500 nM. Besides, in assay [2] (setting [3]), the inhibition at 1 µM is more than 80%. The “Gal4 activity range @ 0.1 μM (% inhibition)” value in assay [2] was more than 50 % inhibition.
In assay [1], `CC(c1ccc(C(F)(F)F)cn1)N(c1ncnc(NCc2ccc(CC(N)=O)cc2)c1F)C1CC1` (stereo not shown) [Example A104, 2-[4-[[[6-[cyclopropyl-[1-[5-(trifluoromethyl)-2-pyridyl]ethyl]amino]-5-fluoro-pyrimidin-4-yl]amino]methyl]phenyl]acetamide] had an IC50 of less than 1000 nM. For the same molecule, the inhibition at 1 µM in assay [2] (setting [3]) is more than 80%. For the same molecule, the “Gal4 activity range @ 0.1 μM (% inhibition)” value in assay [2] is more than 50 % inhibition.
`CNC(=O)CC1(CNc2ncnc(N(Cc3ccc(C(F)(F)F)cc3)C3CC3)c2F)CCOCC1` [Example A80, 2-[4-[[[6-[cyclopropyl-[[4-(trifluoromethyl)phenyl]methyl]amino]-5-fluoro-pyrimidin-4-yl]amino]methyl]tetrahydropyran-4-yl]-N-methyl-acetamide] showed an IC50 in assay [1] of less than 500 nM. For the same molecule, the inhibition at 1 µM in assay [2] (setting [3]) was more than 80%. The “Gal4 activity range @ 0.1 μM (% inhibition)” value in assay [2] was more than 20 % inhibition.
Turning to `O=S(=O)(N[C@H]1CC[C@H](CNc2ncnc(N(Cc3ccc(C(F)(F)F)cc3)C3CC3)c2F)CC1)C(F)(F)F` [Example A57, N-[4-[[[6-[cyclopropyl-[[4-(trifluoromethyl)phenyl]methyl]amino]-5-fluoro-pyrimidin-4-yl]amino]methyl]cyclohexyl]-1,1,1-trifluoro-methanesulfonamide], the IC50 in assay [1] was less than 500 nM. For the same molecule, in assay [2] (setting [3]), the inhibition at 1 µM was more than 80%. For the same molecule, the “Gal4 activity range @ 0.1 μM (% inhibition)” value in assay [2] is more than 50 % inhibition.
Regarding `CCCn1nc(C)cc1CN(C)c1ncnc(NCC2CCN(S(=O)(=O)C(F)F)CC2)c1F` [Example A149, N6-[[1-(difluoromethylsulfonyl)-4-piperidyl]methyl]-5-fluoro-N4-methyl-N4-[(5-methyl-2-propyl-pyrazol-3-yl)methyl]pyrimidine-4,6-diamine], the half-maximal inhibitory concentration (IC50) in assay [1] was less than 500 nM. Further, the inhibition at 1 µM in assay [2] (setting [3]) was more than 20%.
In turn, `Fc1c(NCc2ccc(Cc3nnn[nH]3)cc2)ncnc1N(Cc1ccc(C(F)(F)F)cc1)C1CC1` [Example T1, N6-cyclopropyl-5-fluoro-N4-[[4-(1H-tetrazol-5-ylmethyl)phenyl]methyl]-N6-[[4-(trifluoromethyl)phenyl]methyl] pyrimidine-4,6-diamine] displayed a half-maximal inhibitory concentration (IC50) in assay [1] of less than 500 nM. Moreover, the inhibition at 1 µM in assay [2] (setting [3]) was more than 80%. Also, the “Gal4 activity range @ 0.1 μM (% inhibition)” value in assay [2] is recorded as more than 50 % inhibition.
For `CS(=O)(=O)N1CC2CC2(CNc2ncnc(N(Cc3ccc(C(F)(F)F)cc3)C3CC3)c2F)C1` (stereo not shown) [Example A174, N6-cyclopropyl-5-fluoro-N4-[(3-methylsulfonyl-3-azabicyclo[3.1.0]hexan-5-yl)methyl]-N6-[[4-(trifluoromethyl)phenyl]methyl] pyrimidine-4,6-diamine], the half-maximal inhibitory concentration (IC50) in assay [1] is less than 500 nM. Moreover, the inhibition at 1 µM in assay [2] (setting [3]) was more than 80%. Moreover, the “Gal4 activity range @ 0.1 μM (% inhibition)” value in assay [2] is more than 20 % inhibition.
The like results for `O=S(=O)(Nc1ccc(CNc2ncnc(N(Cc3ccc(C(F)(F)F)cc3)C3CC3)c2F)cc1)C(F)F` [Example A91, N-[4-[[[6-[cyclopropyl-[[4-(trifluoromethyl)phenyl]methyl]amino]-5-fluoro-pyrimidin-4-yl]amino]methyl]phenyl]-1,1-difluoro-methanesulfonamide] were, in that order, less than 500 nM, more than 80% and more than 80 % inhibition.
As for `O=S(=O)(NC1CC1)c1ccc(CNc2ncnc(N(Cc3ccc(C(F)(F)F)cc3)C3CC3)c2F)cc1` [Example A9, N-cyclopropyl-4-[[[6-[cyclopropyl-[[4-(trifluoromethyl)phenyl]methyl]amino]-5-fluoro-pyrimidin-4-yl]amino]methyl]benzenesulfonamide], in assay [1], the IC50 is less than 500 nM. Further, the inhibition at 1 µM in assay [2] (setting [3]) was more than 80%. Also, the “Gal4 activity range @ 0.1 μM (% inhibition)” value in assay [2] is reported as more than 20 % inhibition.
The like results for `Fc1c(NCc2ccc(Cc3nnn[nH]3)cc2)ncnc1N(Cc1ccc(-n2cccn2)cc1)C1CC1` [Example A88, N4-cyclopropyl-5-fluoro-N4-[(4-pyrazol-1-ylphenyl)methyl]-N6-[[4-(1H-tetrazol-5-ylmethyl)phenyl]methyl]pyrimidine-4,6-diamine] were, in that order, less than 500 nM, more than 50% and more than 0 % inhibition.

Source of the values: patent US10683293B2, “Optionally fused heterocyclyl-substituted derivatives of pyrimidine useful for the treatment of inflammatory, metabolic, oncologic and autoimmune diseases” (NUEVOLUTION A/S, priority 2014, dated 2020).
